Entries after “also recorded” stand apart in the source; their conditions may differ.
Legend:
[1] = tested on: C57BL/KsJ db/+ and C57BL/KsJ db/db mice; assay: Dose of n-butyl cyanoacrylate and response of hair growth (macroscopic score); assay type: in vivo, mouse
Method: The effect of n-butyl cyanoacrylate concentration on stimulation of hair growth was investigated as follows. Five mice of each strains C57BL/KsJ db/+ and C57BL/KsJ db/db were shaved on the dorsum, treated with a single topical application of either undiluted Nexaband^R Liquid (containing about 10 mg of n-butyl cyanoacrylate per 10 μl), or Nexaband^R Liquid diluted to 50% or 25% with vegetable oil. Hair growth was macroscopically scored at 49, 61 and 86 days after treatment.

[2] = tested on: skin of mice (C57BL/KsJ db/+ and C57BL/KsJ db/db); assay: Hair growth in organ culture of treated skin (ex vivo); design: species or system mouse
Method: The shaved dorsal skin of mice (C57BL/KsJ db/+ and C57BL/KsJ db/db) was treated with n-butyl cyanoacrylate by a single topical application at a dose of 10 mg cm^2. One hour later, the skin (0.5×1.0 cm) containing both treated and untreated areas was excised, rinsed in PBS, cultured in Dulbecco's Modified Eagle Medium (Gibco BRL, Gaithersburg, Md.) supplemented with 10% fetal bovine serum (HyClone Laboratories, Logan, Utah) at an atmosphere of […] and 5% CO2, 37° C. Hair growth was recorded by macroscopy.

[3] = tested on: C57BL/KsJ db/+ and C57BL/KsJ db/db mice; assay: Effect of isobutyl cyanoacrylate on hair growth, topical; assay type: in vivo, mouse; conditions: C57BL/KsJ db/db, 10 μl cm^−2 topical
Method: The following experiment was performed to identify the effect of isobutyl cyanoacrylate, a structural analog of n-butyl cyanoacrylate, on hair growth. The shaved backs of C57BL/KsJ db/+ and C57BL/KsJ db/db mice were treated topically at a dose of 10 μl cm^−2 with either isobutyl cyanoacrylate (Sigma Chemical Co., St Louis, Mo.) or n-butyl cyanoacrylate.

TGF-β2,3 = assay: Immunohistochemistry of growth factors in treated skin; assay type: in vivo, mouse; conditions: throughout the study period
Method: Forty stock female mice of strain C57BL/KsJ db/+ at eight weeks of age were treated with a single dose of n-butyl cyanoacrylate applied topically to the shaved dorsum. Animals were sacrificed at days 4, 6, 8, 10, 12, 14, 16, 18, 20, and 22 post-treatment, and skin samples were excised to yield an area of n-butyl cyanoacrylate treated skin together with a contiguous, adjacent sample of untreated skin. In preparation for immunohistochemistry, samples were washed in PBS, fixed in 10% formalin, and secondarily fixed in Bouin's solution prior to paraffin embedding. Multiple 4-5 μm sections were placed on slides pre-coated with 3-aminopropylethoxysilane.
The following primary antibodies were used: anti-TGF-β1 neutralizing antibody; anti-TGF-β2,3; and anti-EGF receptor.

C57BL/KsJ db/+ mice [4] = assay: Inhibition of n-butyl cyanoacrylate-stimulated hair growth by neutralizing antibodies; assay type: in vivo, mouse; conditions: day 14, sites 2 and 3, 10 μl per site
Method: Forty mice of strain C57BL/KsJ db/+ eight weeks old were divided into four equal groups (A-D). The dorsal aspect of the mice were shaved, and five different sites on the dorsum were designated (sites 1-5). Each site was 5-6 mm^2. Animals of group A were treated topically at sites 1, 2 & 3 with n-butyl cyanoacrylate only (10 μl per site) formulated as Nexaband^R Liquid. Animals of group B were treated topically at sites 1, 2 & 3 with the same dose of n-butyl cyanoacrylate, but sites 1 and 3 subsequently received subcutaneous injections of either anti-TGF-β1 neutralizing antibody (1 μg per g of body weight) in PBS/0.1% BSA (at site 1), or PBS/0.1% BSA as a matched control (at site 3). Group C animals were treated as for Group B except that anti-EGF neutralizing antibody was injected at site 1 instead of anti-TGF-pi. […] Group D animals were shaved only and received no treatment.
Hair regeneration was documented by macroscopic observations supported by serial photographs of treatment sites. Histological observations were made on skin biopsies taken at frequent intervals ranging from 6 hours to 21 days post-treatment.

[5] = tested on: C57BL/KsJ db/+ and C57BL/KsJ db/db mice; assay: Effect of isobutyl cyanoacrylate on hair growth, topical; assay type: in vivo, mouse; conditions: C57BL/KsJ +/+, 10 μl cm^−2 topical
C57BL/KsJ db/+ mice [6] = assay: Application to full-thickness incisional and excisional wounds; assay type: in vivo, mouse
Method: An incisional, full-thickness wound, about 2 cm long was made through the dorsal skin of five mice (strain C57BL/KsJ db/+). A single dose of about 10 mg of n-butyl cyanoacrylate (in 10 μl of Nexaband^R Liquid) was applied to the bottom of the wound, and the wound closed with two surgical clips. Control animals which received 10 μl of phosphate buffered saline (PBS: 0.144 g/l KH2PO4, 9.0 g/l NaCl, 0.795 g/l Na2HPO4.7H2O; pH 7.2) were processed identically. During the period of 1-90 days post application, the effect of n-butyl cyanoacrylate treatment was examined by macroscopic observation.
In a group of five C57BL/KsJ db/+ mice, a full-thickness excisional wound was made with a biopunch (6 mm diameter) on the dorsal skin. A single dose of 9 mg of n-butyl cyanoacrylate (in 10 μl of Nexaband^R Liquid) was applied to the bottom of the wound, and the wound was left open. Control animals which received 10 μl of PBS were treated identically.

[7] = 25%, C57BL/KsJ db/+, 49 days after treatment
[8] = 25%, C57BL/KsJ db/+, 61 days after treatment
[9] = 25%, C57BL/KsJ db/+, 86 days after treatment
[10] = 25%, C57BL/KsJ db/db, 49 days after treatment
[11] = 25%, C57BL/KsJ db/db, 61 days after treatment
[12] = 25%, C57BL/KsJ db/db, 86 days after treatment
[13] = 50%, C57BL/KsJ db/db, 49 days after treatment
[14] = 50%, C57BL/KsJ db/db, 61 days after treatment
[15] = 50%, C57BL/KsJ db/db, 86 days after treatment

## C=C(C#N)C(=O)OCCCC [n-butyl cyanoacrylate]
[1]; [7]
  Number of Animals Exhibiting Hair Growth, Score 0: 4
  Number of Animals Exhibiting Hair Growth, Score 1+: 1
[1]; [8]
  Number of Animals Exhibiting Hair Growth, Score 0: 2
  Number of Animals Exhibiting Hair Growth, Score 1+: 3
[1]; [9]
  Number of Animals Exhibiting Hair Growth, Score 0: 3
  Number of Animals Exhibiting Hair Growth, Score 1+: 2
[1]; [10]
  Number of Animals Exhibiting Hair Growth, Score 0: 2
  Number of Animals Exhibiting Hair Growth, Score 2+: 2
  Number of Animals Exhibiting Hair Growth, Score 3+: 1
[1]; [11]
  Number of Animals Exhibiting Hair Growth, Score 0: 2
  Number of Animals Exhibiting Hair Growth, Score 1+: 1
  Number of Animals Exhibiting Hair Growth, Score 2+: 1
  Number of Animals Exhibiting Hair Growth, Score 3+: 1
[1]; [12]
  Number of Animals Exhibiting Hair Growth, Score 2+: 3
  Number of Animals Exhibiting Hair Growth, Score 3+: 2
[1]; [13]
  Number of Animals Exhibiting Hair Growth, Score 2+: 2
  Number of Animals Exhibiting Hair Growth, Score 3+: 3
[1]; [14]
  Number of Animals Exhibiting Hair Growth, Score 2+: 1
  Number of Animals Exhibiting Hair Growth, Score 3+: 4
[1]; [15]
  Number of Animals Exhibiting Hair Growth, Score 2+: 2
  Number of Animals Exhibiting Hair Growth, Score 3+: 3
[1]; 100% (10 mg/10 μl), C57BL/KsJ db/+, 49 days after treatment
  Number of Animals Exhibiting Hair Growth, Score 3+: 5
[1]; 100% (10 mg/10 μl), C57BL/KsJ db/+, 61 days after treatment
  Number of Animals Exhibiting Hair Growth, Score 3+: 5
[1]; 100% (10 mg/10 μl), C57BL/KsJ db/+, 86 days after treatment
  Number of Animals Exhibiting Hair Growth, Score 3+: 5
[1]; 100% (10 mg/10 μl), C57BL/KsJ db/db, 49 days after treatment
  Number of Animals Exhibiting Hair Growth, Score 3+: 5
[1]; 100% (10 mg/10 μl), C57BL/KsJ db/db, 61 days after treatment
  Number of Animals Exhibiting Hair Growth, Score 3+: 5
[1]; 100% (10 mg/10 μl), C57BL/KsJ db/db, 86 days after treatment
  Number of Animals Exhibiting Hair Growth, Score 3+: 5
[1]; undiluted, 50%, 25%
  dose dependence of induced hair growth: dose-dependent
[2]; 14 days in organ culture after treatment
  hair growth in organ culture (photograph): hair growth is apparent in the treated area
[2]; organ culture, post treatment
  time to which hair growth lasted (end of the experiment): ≥ 25 days
[2]; organ culture, single topical application 10 mg cm^2 one hour before excision, post treatment
  time at which hair growth in the treated area was observed: 7 to 12 days
[3]
  Hair growth: 3+ (high hair regeneration with an area larger than 50% of the treated area)
TGF-β2,3
  intensity of TGF-β2,3 stain in the epidermis: greater than that of TGF-β1
C57BL/KsJ db/+ mice [4]
  stimulation of hair growth at sites treated with n-butyl cyanoacrylate alone: clearly evident; also recorded: new hair growth was present
[5]
  Hair growth: 3+ (high hair regeneration with an area larger than 50% of the treated area)
C57BL/KsJ db/+ mice [6]; full thickness incisional or excisional wound
  microscopic examination of wound site: induced de novo hair follicle formation in the subcutaneous adipose layer, in the dermis, as well as in the wound site
C57BL/KsJ db/+ mice [6]; incision wound, day 17 post treatment
  hair growth at wound (photograph): profound hair growth along the linear wound margin
C57BL/KsJ db/+ mice [6]; incisional and excisional wounds
  hair growth at wound: stimulated hair growth along the wound margin
C57BL/KsJ db/+ mice [6]; incisional wound, day 17 post treatment
  histology of wound site: development of many new hair follicles and little scar tissue in the wound site

Reference: patent US20020065314A1, “COMPOSITIONS AND METHOD FOR STIMULATING HAIR GROWTH” (priority 1995, published 2002)
